According to PubChem BioAssay AID1259407 (Chemical Carcinogenesis Research Information System (CCRIS), 2018):
The source made the active and inactive calls. No rule for the calls is given here.

System: CCRIS mutagenicity, Ames/micronucleus/aberration tests
Assay: CCRIS mutagenicity studies
Conditions: Test System: AMES SALMONELLA TYPHIMURIUM
[1] = Strain/Indicator: TA98, Metabolic Activation: NONE, Method: PREINCUBATION
[2] = Strain/Indicator: TA100, Metabolic Activation: NONE, Method: PREINCUBATION
[3] = Strain/Indicator: TA100, Metabolic Activation: NONE, Method: STANDARD PLATE
[4] = Strain/Indicator: TA104, Metabolic Activation: NONE, Method: STANDARD PLATE
[5] = Strain/Indicator: TA1535, Metabolic Activation: NONE, Method: PREINCUBATION
[6] = Strain/Indicator: TA1535, Metabolic Activation: NONE, Method: STANDARD PLATE
[7] = Strain/Indicator: TA4001, Metabolic Activation: NONE, Method: STANDARD PLATE
[8] = Strain/Indicator: TA4006, Metabolic Activation: NONE, Method: STANDARD PLATE

## Cc1nc2ccc(N)cc2nc1C
[1]
  mutagenic call: active; positive
Strain/Indicator: TA98, Metabolic Activation: RAT, LIVER, S-9, PCB, Method: PREINCUBATION
  mutagenic call: active; positive
[2]
  mutagenic call: inactive; negative
Strain/Indicator: TA100, Metabolic Activation: RAT, LIVER, S-9, PCB, Method: PREINCUBATION
  mutagenic call: active; positive

## c1ccc2c(CC3CO3)cccc2c1 (configuration not stated)
[2]
  mutagenic call: active; positive
[3]
  mutagenic call: active; positive
[4]
  mutagenic call: active; positive
[5]
  mutagenic call: active; positive
[6]
  mutagenic call: active; positive
[7]
  mutagenic call: active; positive
[8]
  mutagenic call: active; positive

## CN(C)CCNC(=O)c1cccc2c1Oc1ccccc1O2
Strain/Indicator: TA1537, Metabolic Activation: NONE, Method: STANDARD PLATE
  mutagenic call: active; positive

## CC(=O)Nc1ccc(C(=O)/C=C/c2ccccc2)cc1
Strain/Indicator: TA98, Metabolic Activation: NONE, Method: STANDARD PLATE
  mutagenic call: inactive; negative
Strain/Indicator: TA98, Metabolic Activation: RAT, LIVER, S-9, AROCLOR 1254, Method: STANDARD PLATE
  mutagenic call: inactive; negative
[3]
  mutagenic call: inactive; negative
Strain/Indicator: TA100, Metabolic Activation: RAT, LIVER, S-9, AROCLOR 1254, Method: STANDARD PLATE
  mutagenic call: inactive; negative

## O=C(NO)c1ccccc1
Strain/Indicator: TA97, Metabolic Activation: HAMSTER, LIVER, S-9, AROCLOR 1254 (10%), Method: PREINCUBATION
  mutagenic call: active; positive
Strain/Indicator: TA97, Metabolic Activation: NONE, Method: PREINCUBATION
  mutagenic call: active; positive
Strain/Indicator: TA97, Metabolic Activation: RAT, LIVER, S-9, AROCLOR 1254 (10%), Method: PREINCUBATION
  mutagenic call: active; positive
Strain/Indicator: TA98, Metabolic Activation: HAMSTER, LIVER, S-9, AROCLOR 1254 (10 OR 30%), Method: PREINCUBATION
  mutagenic call: active; positive
[1]
  mutagenic call: active; positive
Strain/Indicator: TA98, Metabolic Activation: RAT, LIVER, S-9, AROCLOR 1254 (10%), Method: PREINCUBATION
  mutagenic call: active; positive
Strain/Indicator: TA98, Metabolic Activation: RAT, LIVER, S-9, AROCLOR 1254 (30%), Method: PREINCUBATION
  mutagenic call: active; positive
Strain/Indicator: TA100, Metabolic Activation: HAMSTER, LIVER, S-9, AROCLOR 1254 (10 OR 30%), Method: PREINCUBATION
  mutagenic call: active; positive
[2]
  mutagenic call: active; positive
Strain/Indicator: TA100, Metabolic Activation: RAT, LIVER, S-9, AROCLOR 1254 (10 OR 30%), Method: PREINCUBATION
  mutagenic call: active; positive
Strain/Indicator: TA1535, Metabolic Activation: HAMSTER, LIVER, S-9, AROCLOR 1254 (10%), Method: PREINCUBATION
  mutagenic call: active; positive
[5]
  mutagenic call: inactive; negative
Strain/Indicator: TA1535, Metabolic Activation: RAT, LIVER, S-9, AROCLOR 1254 (10%), Method: PREINCUBATION
  mutagenic call: active; positive
Strain/Indicator: TA1537, Metabolic Activation: HAMSTER, LIVER, S-9, AROCLOR 1254 (10%), Method: PREINCUBATION
  mutagenic call: active; positive
Strain/Indicator: TA1537, Metabolic Activation: NONE, Method: PREINCUBATION
  mutagenic call: active; positive
Strain/Indicator: TA1537, Metabolic Activation: RAT, LIVER, S-9, AROCLOR 1254 (10%), Method: PREINCUBATION
  mutagenic call: active; positive

## c1ccc2c(OCC3CO3)cccc2c1 (configuration not stated)
[3]
  mutagenic call: active; positive
[4]
  mutagenic call: active; positive
[6]
  mutagenic call: active; positive
[7]
  mutagenic call: active; positive
[8]
  mutagenic call: active; positive
